Measured values: PMC9436075, “A structural basis for the functional differences between the cytosolic and plastid phosphoglucose isomerase isozymes” (PLoS ONE, 2022)

Columns and labels:
[1] = molecular target: T1, TaPGIc (Triticum aestivum, UniProt Q1PBI3); assay: PGI activity inhibition, dose-response; format: biochemical; conditions: read-out: IC50E4P
T1 construct: gene GPI; cytosolic PGI, CTD 510-567, HLHM 444-466; homodimer
T1 sequence (Q1PBI3 1-567): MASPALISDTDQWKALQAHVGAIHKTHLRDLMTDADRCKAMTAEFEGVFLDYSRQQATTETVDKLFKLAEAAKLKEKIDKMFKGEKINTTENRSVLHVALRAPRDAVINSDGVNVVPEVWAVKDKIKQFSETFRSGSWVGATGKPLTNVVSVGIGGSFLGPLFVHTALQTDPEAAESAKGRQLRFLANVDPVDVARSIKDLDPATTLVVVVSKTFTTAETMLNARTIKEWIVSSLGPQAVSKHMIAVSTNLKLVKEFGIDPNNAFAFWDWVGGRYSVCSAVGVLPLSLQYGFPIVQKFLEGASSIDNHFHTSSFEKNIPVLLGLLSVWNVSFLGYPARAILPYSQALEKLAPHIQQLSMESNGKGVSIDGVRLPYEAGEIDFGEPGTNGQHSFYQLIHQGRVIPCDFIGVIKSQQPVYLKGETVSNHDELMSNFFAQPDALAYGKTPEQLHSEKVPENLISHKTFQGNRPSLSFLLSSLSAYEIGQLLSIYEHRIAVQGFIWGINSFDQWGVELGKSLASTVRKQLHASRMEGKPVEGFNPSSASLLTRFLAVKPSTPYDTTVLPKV

[2] = molecular target: T2, TaPGIp (Triticum aestivum, UniProt A0A3B6LNA8); assay: PGI activity inhibition, dose-response; format: biochemical; conditions: read-out: IC50E4P
T2 construct: gene LOC123112261; plastid PGI, CTD 467-557, transit peptide probably removed; homodimer
T2 sequence (A0A3B6LNA8 64-620): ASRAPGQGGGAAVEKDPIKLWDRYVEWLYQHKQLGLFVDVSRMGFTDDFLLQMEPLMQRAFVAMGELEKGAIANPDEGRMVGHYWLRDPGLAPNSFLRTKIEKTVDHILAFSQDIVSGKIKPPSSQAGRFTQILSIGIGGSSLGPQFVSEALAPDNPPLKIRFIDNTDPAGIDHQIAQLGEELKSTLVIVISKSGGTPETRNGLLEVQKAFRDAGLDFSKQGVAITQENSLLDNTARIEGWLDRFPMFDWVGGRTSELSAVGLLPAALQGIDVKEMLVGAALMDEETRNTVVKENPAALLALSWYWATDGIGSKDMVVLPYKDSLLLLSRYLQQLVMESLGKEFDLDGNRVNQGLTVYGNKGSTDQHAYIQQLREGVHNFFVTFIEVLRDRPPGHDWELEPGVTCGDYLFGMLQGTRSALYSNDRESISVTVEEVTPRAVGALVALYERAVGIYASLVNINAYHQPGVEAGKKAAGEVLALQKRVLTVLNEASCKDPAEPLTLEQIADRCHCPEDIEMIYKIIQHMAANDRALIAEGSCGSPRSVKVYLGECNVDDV

- IC50 [1]: 130 µM
- IC50 [2]: 760 µM
SMILES: O=C[C@H](O)[C@H](O)COP(=O)(O)O [E4P, erythrose 4-phosphate]
